Experimental data published in patent US20240400553A1, “AMINE BASED MATRIPTASE 2 INHIBITORS AND USES THEREOF” (Disc Medicine, Inc., priority 2023, published 2024).
Read-outs that look alike come from different tables or passages of the source.

Target: T1, Human Recombinant Matriptase 2 (Homo sapiens, UniProt Q8IU80)
T1 construct: made in house
T1 sequence (Q8IU80 1-811): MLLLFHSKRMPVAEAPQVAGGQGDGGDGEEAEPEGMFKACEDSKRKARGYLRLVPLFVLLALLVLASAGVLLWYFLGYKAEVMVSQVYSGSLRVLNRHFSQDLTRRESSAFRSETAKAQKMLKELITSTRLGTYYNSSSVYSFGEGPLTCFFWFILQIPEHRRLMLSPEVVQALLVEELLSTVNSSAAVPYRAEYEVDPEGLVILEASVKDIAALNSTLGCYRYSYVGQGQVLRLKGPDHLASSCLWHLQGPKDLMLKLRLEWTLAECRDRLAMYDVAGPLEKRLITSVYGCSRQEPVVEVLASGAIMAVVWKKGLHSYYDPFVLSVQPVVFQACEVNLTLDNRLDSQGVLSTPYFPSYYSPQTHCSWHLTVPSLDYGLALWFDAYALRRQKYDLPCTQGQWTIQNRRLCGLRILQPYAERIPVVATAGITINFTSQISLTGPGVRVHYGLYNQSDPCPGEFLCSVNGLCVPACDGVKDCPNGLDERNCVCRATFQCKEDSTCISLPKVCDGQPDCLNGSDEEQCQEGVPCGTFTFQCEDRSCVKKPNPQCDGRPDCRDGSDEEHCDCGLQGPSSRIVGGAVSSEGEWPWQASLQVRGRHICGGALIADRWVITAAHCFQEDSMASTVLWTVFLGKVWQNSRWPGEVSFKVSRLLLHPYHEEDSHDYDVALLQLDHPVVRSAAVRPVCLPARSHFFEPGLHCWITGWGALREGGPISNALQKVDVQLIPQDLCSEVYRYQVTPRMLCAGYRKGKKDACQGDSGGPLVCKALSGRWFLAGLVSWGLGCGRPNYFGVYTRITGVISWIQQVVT
Experiment: Matriptase 2 inhibition, fluorescence based assay (Method I)
Format: biochemical
How it was run: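 In-house recombinant enzyme (3.5 nM), preincubated 30 min with compound, then Boc-Gln-Ala-Arg-AMC substrate (62 μM) in 50 mM Tris pH 7.5, 150 mM NaCl, 0.01% gelatin, 1% DMSO, 25 °C. Fluorescence (Ex 360/Em 480 nm) read 60 min after substrate; IC50 from variable-slope sigmoidal fit of % inhibition.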

[1] = Table A, Ki of Matriptase-2 given as class symbols, read-out: Mat-2 Ki
[2] = Table A, Ki of Matriptase-2, read-out: Mat-2 Ki
[3] = Table B, Human Recombinant Matriptase 2, 3.5 nM enzyme, 62 μM substrate, 30 mins preincubation, read-out: Mean Ki

SMILES | Ki [2] [nM] | also measured
CC(C)(C)S(=O)(=O)N1CCC(CNC(=O)Nc2cc(Cn3c(C(=O)O)cc4ccc(CN)nc43)c3ccccc3c2)CC1 [Compound 294, 6-(aminomethyl)-1-({3-[({[1-(2-methylpropane-2-sulfonyl)piperidin-4-yl]methyl}carbamoyl)-amino]naphthalen-1-yl}-methyl)-1H-pyrrolo[2,3-b]pyridine-2-carboxylic acid] | – | Ki [1]: 100 to 500 nM
COC(=O)NCCNC(=O)c1cc2ccc(CN)nc2n1Cc1cc(NS(=O)(=O)CC[C@@H]2CCCN2)cc2ccccc12 [Compound 258, methyl N-(2-{[6-(amino-methyl)-1-[(3-{2-[(2S)-pyrrolidin-2-yl]ethane-sulfonamido}naphthalen-1-yl)methyl]-1H-pyr-rolo[2,3-b]pyridin-2-yl]-formamido}ethyl)car-bamate] | – | Ki [1]: 100 to 500 nM
CN(CCOC(=O)c1cc2ccc(CN)nc2n1Cc1cc(NS(=O)(=O)Cc2ccccc2)cc2ccccc12)C(=O)OC(C)(C)C [Compound 122, 2-{[(tert-butoxy)carbon-yl](methyl)amino}ethyl 6-(aminomethyl)-1-{[3-(phenylmethanesulfon-amido)naphthalen-1-yl]-methyl}-1H-pyrrolo[2,3-b]pyridine-2-carboxylate] | 500 to 3000 | –
COCCN1CCN(CCS(=O)(=O)Nc2cc(Cn3c(C(=O)O)cc4ccc(CN)cc43)c3ccccc3c2)CC1 [Compound 388, 6-(aminomethyl)-1-[(3-{2-[4-(2-methoxyethyl)-piperazin-1-yl]ethanesul-fonamido}naphthalen-1-yl)methyl]-1H-indole-2-carboxylic acid] | – | Ki [1]: 100 to 500 nM
CN(C)c1ccc(COC(=O)c2cc3ccc(CN)nc3n2Cc2cc(NS(=O)(=O)Cc3ccccc3)cc3ccccc23)cc1 [Compound 2.27] | – | Ki [3]: 100 to 500 nM
CNC12CC(COC(=O)c3cc4ccc(CN)nc4n3Cc3cc(NS(=O)(=O)Cc4c(C)cccc4C)cc4c3CCCC4)(C1)C2 [Compound 2.38] | – | Ki [3]: ≤ 100 nM
CN1CCC(COC(=O)c2cc3ccc(CN)nc3n2Cc2cc(NS(=O)(=O)Cc3cnsc3)cc3ccccc23)CC1 [Compound 210, (1-methylpiperidin-4-yl)-methyl 6-(aminomethyl)-1-({3-[(1,2-thiazol-4-yl)-methanesulfonamido]-naphthalen-1-yl}methyl)-1H-pyrrolo[2,3-b]pyr-idine-2-carboxylate] | – | Ki [1]: ≤ 100 nM
CN1CCC(COC(=O)c2cc3ccc(CN)nc3n2Cc2cc(NS(=O)(=O)Cc3ccccc3)cs2)CC1 [Compound 2.45] | – | Ki [3]: > 3000 nM
NCc1ccc2cc(C(=O)OCCn3ccnn3)n(Cc3cc(NS(=O)(=O)Cc4ccccc4)cc4ccccc34)c2n1 [Compound 92, 2-(1H-1,2,3-triazol-1-yl-ethyl 6-(aminomethyl)-1-{[3-(phenylmethane-sulfonamido)naphthalen-1-yl]methyl}-1H-pyrrolo-[2,3-b]pyridine-2-carbox-ylate] | 100 to 500 | –
CN(Cc1nccn1C)C(=O)c1cc2ccc(CN)nc2n1Cc1cc(NS(=O)(=O)Cc2ccsc2)cc2ccccc12 [Compound 181, 6-(aminomethyl)-N-methyl-N-[(1-methyl-1H-imidazol-2-yl)meth-yl]-1-({3-{(thiophen-3-yl)methanesulfonamido]-naphthalen-1-yl}methyl)-1H-pyrrolo[2,3-b]pyr-idine-2-carboxamide] | 100 to 500 | –
CC(C)(C)n1cncc1COC(=O)c1cc2ccc(CN)nc2n1Cc1cc(NS(=O)(=O)Cc2ccsc2)cc2ccccc12 [Compound 159, (1-tert-butyl-1H-imid-azol-5-yl)methyl 6-(aminomethyl)-1-({3-[(thiophen-3-yl)methane-sulfonamido]naphthalen-1-yl}methyl)-1H-pyr-rolo[2,3-b]pyridine-2-carboxylate] | ≤ 100 | –
COCCN1CCC(CS(=O)(=O)Nc2cc(Cn3c(C(=O)O)cc4ccc(CN)nc43)c3ccccc3c2)CC1 [Compound 211, 6-(aminomethyl)-1-[(3-{[1-(2-methoxyethyl)-piperidin-4-yl]methane-sulfonamido}naphthalen-1-yl)methyl]-1H-pyr-rolo[2,3-b]pyridine-2-carboxylic acid] | – | Ki [1]: ≤ 100 nM
NCc1ccc2cc(C(=O)OCc3ccccn3)n(Cc3cc(NS(=O)(=O)Cc4ccccc4)cc4ccccc34)c2n1 [Compound 85, (pyridin-2-yl)methyl 6-(aminomethyl)-1-{[3-(phenylmethanesulfon-amido)naphthalen-1-yl]-methyl}-1H-pyrrolo[2,3-b]pyridine-2-carboxylate] | 100 to 500 | –
CC(C)(C)n1cncc1COC(=O)c1cc2ccc(CN)nc2n1Cc1cc(NS(=O)(=O)Cc2ccccc2)cc2ccccc12 [Compound 29, (1-tert-butyl-1H-imid-azol-5-yl)methyl 6-(aminomethyl)-1-{[3-(phenylmethanesulfon-amido)naphthalen-1-yl]-methyl}-1H-pyrrolo[2,3-b]pyridine-2-carboxylate] | ≤ 100 | –
CC(=O)OC(C)OC(=O)c1cc2ccc(CN)nc2n1Cc1cc(NS(=O)(=O)CC[C@@H]2CCCN2)cc2ccccc12 (stereo partly drawn) [Compound 275, 1-[6-(aminomethyl)-1-[(3-{2-[(2S)-pyrrolidin-2-yl]ethanesulfonamido}naphthalen-1-yl)methyl]-1H-pyrrolo[2,3-b]pyr-idine-2-carbonyloxy]-ethyl acetate] | – | Ki [1]: 500 to 3000 nM
CN1CCC(CS(=O)(=O)Nc2cc(Cn3c(C(=O)O)cc4ccc(CN)nc43)c3ccccc3c2)CC1 [Compound 237, 6-(aminomethyl)-1-({3-[(1-methylpiperidin-4-yl)methanesulfonamido]-naphthalen-1-yl}methyl)-1H-pyrrolo[2,3-b]pyr-idine-2-carboxylic acid] | – | Ki [1]: 100 to 500 nM
Cc1cccc(C)c1CS(=O)(=O)Nc1cc(Cn2c(C(=O)OCc3nccn3C)cc3ccc(CN)nc32)c2ccccc2c1 [Compound 191, (1-methyl-1H-imidazol-2-yl)methyl 6-(amino-methyl)-1-({3-[(2,6-dimethylphenyl)meth-anesulfonamido]naph-thalen-1-yl}methyl)-1H-pyrrolo[2,3-b]pyridine-2-carboxylate] | ≤ 100 | –

The next lines start with results.

Ki [2] [nM] | SMILES | also measured
≤ 100 | CNCCOC(=O)c1cc2ccc(CN)nc2n1Cc1cc(NS(=O)(=O)Cc2ccccc2)cc2ccccc12 [Compound 53, 2-(methylamino)ethyl 6-(aminomethyl)-1-{[3-(phenylmethanesulfon-amido)naphthalen-1-yl]-methyl}-1H-pyrrolo[2,3-b]pyridine-2-carboxylate] | –
≤ 100 | CC(C)n1cncc1COC(=O)c1cc2ccc(CN)nc2n1Cc1cc(NS(=O)(=O)Cc2ccccc2)cc2ccccc12 [Compound 70, [1-(propan-2-yl)-1H-imidazol-5-yl]methyl 6-(aminomethyl)-1-{[3-(phenylmethanesulfon-amido)naphthalen-1-yl]-methyl}-1H-pyrrolo[2,3-b]pyridine-2-carboxylate] | –
≤ 100 | Cn1nccc1COC(=O)c1cc2ccc(CN)nc2n1Cc1cc(NS(=O)(=O)Cc2ccccc2)cc2ccccc12 [Compound 68, (1-methyl-1H-pyrazol-5-yl)methyl 6-(amino-methyl)-1-{[3-(phenyl-methanesulfonamido)-naphthalen-1-yl]meth-yl}-1H-pyrrolo[2,3-b]-pyridine-2-carboxylate] | –
≤ 100 | CNC(=O)c1cc2ccc(CN)nc2n1Cc1cc(NS(=O)(=O)Cc2ccccc2)cc2ccccc12 [Compound 66] | –
100 to 500 | COCCN1CCC(COC(=O)c2cc3ccc(CN)nc3n2Cc2cc(NS(=O)(=O)Cc3ccccc3)cc3ccccc23)CC1 [Compound 142, [1-(2-methoxyethyl)-piperidin-4-yl]methyl 6-(aminomethyl)-1-{[3-(phenylmethanesulfon-amido)naphthalen-1-yl]-methyl}-1H-pyrrolo[2,3-b]pyridine-2-carboxylate] | –
≤ 100 | NCc1ccc2cc(C(=O)OCCN3CCS(=O)(=O)CC3)n(Cc3cc(NS(=O)(=O)Cc4ccccc4)cc4ccccc34)c2n1 [Compound 77, 2-(1,1-dioxo-1-thio-morpholin-4-yl)ethyl 6-(aminomethyl)-1-{[3-(phenylmethanesulfon-amido)naphthalen-1-yl]-methyl}-1H-pyrrolo[2,3-b]pyridine-2-carboxylate] | –
≤ 100 | C[C@H](COC(=O)c1cc2ccc(CN)nc2n1Cc1cc(NS(=O)(=O)Cc2ccccc2)cc2ccccc12)CN1CCOCC1 (racemic) [Compound 145, rac-(2R)-2-methyl-3-(morpholin-4-yl)propyl 6-(aminomethyl)-1-{[3-(phenylmethanesulfon-amido)naphthalen-1-yl]-methyl}-1H-pyrrolo[2,3-b]pyridine-2-carboxylate] | –
